# From US9314498B2, “Bacteriocin derived from Lactobacillus rhamnosus” (priority 2011, dated 2016)
# How the values were obtained:
# [1] = Measurement of the isoelectric point of the synthesized peptides; type: physicochemical; conditions: synthesized peptide
# Text: Among antimicrobial peptides, hBD2 (human P-defensin-2 (see Eur J., 2002, Oral Sci. (109), 121-124)) is well known as a basic antimicrobial peptide, and has an isoelectric point of about 10. However, the isoelectric points of Kog1 and Kog2 of the embodiment 2 were higher than the isoelectric point of hBD2, and more similar to the isoelectric points of antimicrobial peptides derived from mammals. Thus, Kog1 and Kog2 were confirmed to have less cytotoxicity.
# [2] = system: Streptococcus sobrinus B-13 strain; assay: Antimicrobial activity against Streptococcus sobrinus B-13; type: cell-based; conditions: tested 0 to 100 μM
# Protocol: [The procedure below names another organism; the source lists this organism under the same test.] (§1) The Candida albicans GDH18 strain was precultured using SD medium (Difco) at 37° C. for 24 hours under aerobic conditions. The Streptococcus sobrinus B-13 strain, Streptococcus mutans NCTC10449 strain and Streptococcus mutans Ingbritt strain were precultured using TSB medium (Difco) supplemented with 5% yeast extract (Difco) at 37° C. for 24 hours under aerobic conditions. The Porphyromonas gingivalis Hudoi001 strain and Aggregatibacter actinomycetemcomitans Hudoe001 strain were precultured using BHI medium (Difco) supplemented with hemin (5 mg/L) and vitamin K3 (1 mg/L) at 37° C. for 96 hours under anaerobic conditions with Anaero Pack System (Mitsubishi Gas Chemical Company, Inc.).
# (§2) After the culture, the cells of the Candida, cariogenic bacteria and periodontal disease bacteria were collected by centrifugation at 1000×g, and washed twice with 1 mM phosphate buffer (pH 6.8). The cells were then suspended such that the final concentration was 1×10^8 cfu/ml or 1×10^7 cells/m. For suspension of the Streptococcus strains, ultrasonic treatment was also carried out.
# Evaluation of the antimicrobial activity was carried out by the method by Edgerton and others (1998) with some modifications. With 20 mL of 1 mM phosphate buffer containing 0 to 25 μM Kog1 or Kog2 synthesized in Example 1, 20 μl of the suspension of the Candida albicans GDH18 strain cultured and prepared by the method described in the above Preparation Example was mixed, and the resulting mixture was incubated at 37° C. for 90 minutes with shaking. As a control, 20 ml of 1 mM phosphate buffer alone was used. The reaction was stopped by addition of 360 ml of YNB medium (Difco), and the number of colonies formed (colony forming units; CFUs) was counted together with the number of colonies in the control, to determine the percentage of living bacterial cells. That is, the equation of: (CFUs of suspension containing Kog1 or Kog2/CFU ml^−1 of control suspension)×100 was used to calculate the percentage. […]
# [3] = system: Aggregatibacter actinomycetemcomitans Hudoe001 strain; assay: Antimicrobial activity against Aggregatibacter actinomycetemcomitans Hudoe001; type: cell-based; conditions: tested 0 to 50 μM
# [4] = system: Porphyromonas gingivalis Hudoi001 strain; assay: Antimicrobial activity against Porphyromonas gingivalis Hudoi001; type: cell-based; conditions: not shown in the figures
# Protocol: as §1, §2
# That is, it is assumed that, in Examples described in Patent Literature 1, the Lactobacillus rhamnosus KO3 strain expressed Kog1 and Kog2, and the expressed Kog1 and Kog2 exerted antimicrobial activity against the Porphyromonas gingivalis Hudoi001 strain. […]
# [5] = system: Candida albicans MYA274 strain; assay: Boiling experiment: antimicrobial activity (ATP) against Candida albicans MYA274; type: cell-based; conditions: concluded from supernatant boiled at 100° C. for 20 minutes; peptides not directly used
# Protocol: In Example 9, antimicrobial activity against the Candida albicans MYA274 strain was investigated. The Candida albicans MYA274 strain was precultured in Sabouraud dextrose broth (Difco) at 37° C. for 24 hours, and then washed twice with MQ water, followed by being prepared such that OD600 is 0.3 (1.0×10^7 cells/ml).
# In Example 9, the bacteriocin Kog1 or Kog2, or the Lactobacillus rhamnosus KO1 strain or KO3 strain, was not directly used. Instead, a lactic acid bacterium medium containing the Lactobacillus rhamnosus KO3 strain, 8020 yogurt (liquid type), was used in the experiment More specifically, the 8020 yogurt (liquid type) was prepared by adding the Lactobacillus rhamnosus KO3 strain at a concentration of 1% and YF-L811 starter at a concentration of 1% to the 15% skim milk+3% glucose medium, and then performing culture at 35° C. for 2 days.
# Such 8020 yogurt (liquid type) was centrifuged to obtain a supernatant from which the lactic acid bacterium was removed (hereinafter referred to as Supernatant B). In the experiment, Supernatant B and a sample prepared by boiling Supernatant B at 100° C. for 20 minutes (hereinafter referred to as Supernatant Boil) were used. […]
# In order to study changes in the antimicrobial activity by boiling, the following 3 kinds of samples were placed in a 24-well plate, and the value of ATP (pmol/L) after 24 hours of incubation at 37° C. was measured. […]
substance,measurement,setting,value
"Kog2: peptide having the amino acid sequence shown in SEQ ID NO: 2, bacteriocin of Lactobacillus rhamnosus, synthesized by the tea-bag method (MTKVRSSRLRPLTLRLLSAPARAQFLTIACRAILRYDLINS; listed as Lactobacillus rhamnosus)",isoelectric point (pl),[1],12.38
same,peptide concentration at which 100% of the strain was killed,[2],0.39 µM
same,peptide concentration at which 100% of the strain was killed,[3],1.56 µM
same,antimicrobial activity,[4],capable of exerting antimicrobial activity
same,heat resistance (antimicrobial activity after heating),[5],still maintain antimicrobial activity after heating
